Assay results from patent publication US20240009195A1, “NOVEL USES” (INTRA-CELLULAR THERAPIES, INC., priority 2020, published 2024).

What was measured:
[1] = target: hPDE1C (Homo sapiens, UniProt Q14123); assay: IMAP PDE assay, selectivity table; format: biochemical
From the text: (§1) The generation of GMP-fluorescein from cGMP-fluorescein can be quantitated, using, for example, the IMAP (Molecular Devices, Sunnyvale, CA) immobilized-metal affinity particle reagent.
(§2) Briefly, the IMAP reagent binds with high affinity to the free 5′-phosphate that is found in GMP-fluorescein and not in cGMP-fluorescein. The resulting GMP-fluorescein-IMAP complex is large relative to cGMP-fluorescein. Small fluorophores that are bound up in a large, slowly tumbling, complex can be distinguished from unbound fluorophores, because the photons emitted as they fluoresce retain the same polarity as the photons used to excite the fluorescence.
(§3) In the phosphodiesterase assay, cGMP-fluorescein, which cannot be bound to IMAP, and therefore retains little fluorescence polarization, is converted to GMP-fluorescein, which, when bound to IMAP, yields a large increase in fluorescence polarization (Amp). Inhibition of phosphodiesterase, therefore, is detected as a decrease in Amp. […]
(§4) The reaction is incubated in dark at room temperature for 15 min. […] The plate is incubated at room temperature for 1 hour to allow IMAP binding to proceed to completion, and then placed in an Envision multimode microplate reader (PerkinElmer, Shelton, CT) to measure the fluorescence polarization (Amp).
(§5) A decrease in GMP concentration, measured as decreased Amp, is indicative of inhibition of PDE activity.

[2] = test system: guinea pig cardiomyocytes; assay: Glucagon co-administration with PDE1 inhibitor in guinea pig cardiomyocytes (sarcomere shortening, Ca2+ transients); format: cell-based; settings: glucagon (1 μM) plus Compound 1 (1 μM) vs glucagon alone, 37° C., pacing at 1 Hz
Protocol: Studies were carried out to test the effect of glucagon co-administration with a PDE1 inhibitor in guinea pig cardiomyocytes. Myocytes were isolated according to Liu et al., Circulation Research, 2014. A thoracotomy was performed on anesthetized guinea pigs to remove the heart. The aorta was cannulated on a Langendorf apparatus fitted with a heating jacket circulating water at 37° C., and were retrogradely perfused for 5 minutes at 8 ml/min. The perfusate was switched to a Tyrode's solution containing […] (Worthington) and protease type 14 (Sigma-Aldrich) for 7-9 minutes. The solution was switched to a modified Kraft-Bruhe (KB) buffer for 5 minutes, before being minced and filtered to yield single cells. Isolated cells were incubated in a modified KB buffer (Isenberg et al., Pflugers Arch, 1982] for an hour, before being placed in supplemented M199 ACCIT medium. (Ellingsen et al., American J Physiology, 1993) Cells were kept at room temperature, and used within 7 hours.
Changes in cell sarcomere shortening and Ca^2+ transients were measured using a customized IonOptix system previously described. (Hashimoto et al., Circulation, 2018). Briefly, cells were loaded using 1 μM Fura-2 for 15 minutes, and washed out for at least 20 minutes. Baseline recording was made in Tyrode's buffer described above, with 0.1% DMSO. […]

[3] = target: hPDE1A (Homo sapiens, UniProt P54750); assay: IMAP PDE assay, selectivity table; format: biochemical
Chain of hPDE1A (P54750 whole entry): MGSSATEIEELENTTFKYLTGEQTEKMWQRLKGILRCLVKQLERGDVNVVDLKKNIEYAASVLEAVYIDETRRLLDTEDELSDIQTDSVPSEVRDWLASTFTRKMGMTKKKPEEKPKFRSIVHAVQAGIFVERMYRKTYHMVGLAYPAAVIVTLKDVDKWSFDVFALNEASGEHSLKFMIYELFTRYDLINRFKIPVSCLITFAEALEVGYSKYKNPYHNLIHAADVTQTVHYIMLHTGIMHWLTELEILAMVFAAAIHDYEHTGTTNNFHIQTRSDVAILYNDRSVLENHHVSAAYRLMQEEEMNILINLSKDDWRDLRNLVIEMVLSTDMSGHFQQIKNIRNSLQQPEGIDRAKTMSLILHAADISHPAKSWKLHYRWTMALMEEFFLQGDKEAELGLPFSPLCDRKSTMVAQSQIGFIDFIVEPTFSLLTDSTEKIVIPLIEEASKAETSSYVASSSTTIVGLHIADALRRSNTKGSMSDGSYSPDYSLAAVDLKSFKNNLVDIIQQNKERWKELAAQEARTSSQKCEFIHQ
From the text: as §1, §2, §3, §4, §5

Chain of hPDE1C (Q14123 whole entry): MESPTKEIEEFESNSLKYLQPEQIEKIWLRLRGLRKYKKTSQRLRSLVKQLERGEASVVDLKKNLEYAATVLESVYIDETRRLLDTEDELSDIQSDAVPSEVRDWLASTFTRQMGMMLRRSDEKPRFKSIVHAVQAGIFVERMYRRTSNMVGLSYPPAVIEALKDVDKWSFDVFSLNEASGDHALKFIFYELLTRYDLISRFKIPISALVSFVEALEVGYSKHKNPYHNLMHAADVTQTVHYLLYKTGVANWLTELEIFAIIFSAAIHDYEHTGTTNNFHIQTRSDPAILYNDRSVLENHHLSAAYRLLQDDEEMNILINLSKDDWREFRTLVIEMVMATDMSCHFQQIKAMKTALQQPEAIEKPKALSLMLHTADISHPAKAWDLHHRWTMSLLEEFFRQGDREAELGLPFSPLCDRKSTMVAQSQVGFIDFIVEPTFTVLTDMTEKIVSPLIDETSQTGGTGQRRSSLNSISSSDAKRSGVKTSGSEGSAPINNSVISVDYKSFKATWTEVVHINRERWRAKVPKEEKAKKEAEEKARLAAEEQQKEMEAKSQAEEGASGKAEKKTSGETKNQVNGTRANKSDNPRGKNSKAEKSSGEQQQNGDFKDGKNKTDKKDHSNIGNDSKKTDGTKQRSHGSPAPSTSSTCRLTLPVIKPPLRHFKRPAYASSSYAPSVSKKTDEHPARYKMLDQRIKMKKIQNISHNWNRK

In the case of CN1C(=O)c2c(nn(Cc3ccc(-c4cccc(F)n4)cc3)c2Nc2ccccc2)N2C1=N[C@@H]1CCC[C@@H]12 [Compound 1], the IC50 [1] is reported as 0.037 nM, the “change in cell sarcomere shortening” value ([2]; FIG. 1) is reported as “increased the beneficial effects of glucagon” and the “peak Ca2+ transient amplitude” value ([2]; FIG. 2) is reported as “increased the beneficial effects of glucagon”. It also gave an IC50 [3] of 0.027 nM.
